Test results as given in publication PMC8999133, “Resemblance-Ranking Peptide Library to Screen for Binders to Antibodies on a Peptidomic Scale” (International Journal of Molecular Sciences, 2022).

Key:
rituximab = conditions: forward and reverse sequences; not bound by other anti-CD20 mAbs; cited from earlier work
From the text: The peptide […] from the resem ...

rituximab (RTX) = experiment: First screen of the resemblance-ranking peptide library with RTX, fluorescent immunostaining; type: binding; conditions: RTX 30 µg/mL; among 160,000 peptides
Description: Peptide microarrays: A peptide library of 160,000, peptides as well other peptide microarrays for the substitutions and the KD analysis, were fabricated via the ultra-high-density peptide microarray technology of AXXELERA (Karlsruhe, Germany) [49]. The AXXELERA technology allows for the 30 µm-sized square peptide spots with a pitch of 60 µm that corresponds to ca. 28,000 spots/cm^2.
Immunostaining: Peptide microarrays were incubated with the monoclonal anti-CD20 antibody rituximab (Sigma-Aldrich, Steinheim, Germany) with concentrations depending on the type of experiment, diluted in PBS-T (Phosphate Buffered Saline with Tween) overnight at 4 °C. A rituximab concentration of 30 µg/mL was used for the first screen of the entire resemblance-ranking peptide library. Then, the peptide chips were stained with the fluorescently labeled secondary anti-human-IgG antibodies (Jackson ImmunoResearch, Philadelphia, PA, USA). The signals from the spots were read out with the confocal scanner Innoscan 1100 AL. The scans were performed in the red channel (635 nm), with a resolution of 2 µm/pixel, a speed of 35 µm/s, and a PMT gain of 9.

Substance | binding to rituximab (rituximab) | ratio to the maximum signal value (rituximab (RTX))
WPKWLE | bind rituximab | 
ELWKPW | bind rituximab | 
LWKPWLQPCC |  | 0.13
